In patent publication US20050123553A1, “Amyloid beta-peptide and methods of use” (priority 2003, published 2005):

Legend:
[1] = Fibril formation by quasielastic light-scattering spectroscopy (QLS); assay type: physicochemical; details: phosphate buffer pH 7.4, 3 samples of 10 μg/ml, 5 consecutive days
Protocol: Fibril formation was measured in 3 equivalent samples of 10 μg/ml Aβ for 5 consecutive days. […] Nested Aβ peptides (Aβ1-15, Aβ4-18, Aβ7-21, Aβ10-24, Aβ13-27, Aβ16-30, Aβ19-33, Aβ22-36, Aβ25-39, Aβ28-42) and alanine/glycine-substituted peptides were synthesized at Biosource International (Hopkinton, Mass.). Aβ peptides used for T-cell assays were dissolved in DMSO (2 mg/ml). Glatiramer acetate (GA) was obtained at the Brigham and Women's Hospital pharmacy.

[2] = tested on: Aβ1-42-reactive T-cell lines; test: Epitope mapping / proliferation of Aβ1-42-reactive T-cell lines; assay type: cell-based, human
Protocol: Epitope specificity of these 3 T-cell lines using 5 overlapping peptides within Aβ15-42 was further investigated.
(§1) T-cell lines were then supplemented with 10 μg/ml IL-2 after 48 hours and every 2 days thereafter until they were completely resting. T-cell proliferation was measured 72 hours after stimulation following a 12 hr incubation with [^3H]-thymidine. Supernatants were collected 48 hr after T-cell stimulation, and antigen-induced cytokine production was measured by sandwich ELISA. Recommended pairs of antibodies (coating and detecting) for IL-10 (R&D, Minneapolis, Minn.), INF-γ. Endogen, Woburn, Mass.), IL-13 (PharMingen, (San Diego, Calif.), and TGF-β (Promega, Madison, Wis.) were used according to the manufacturer's instructions. Surface and intracellular staining was performed on Aβ-reactive T-cells after stimulation. All antibodies were purchased from BD Biosciences (San Diego, Calif.) and staining was performed according to the manufacturer's instructions.

Aβ-reactive T-cell lines = test: Cytokine secretion of Aβ-reactive T-cell lines (sandwich ELISA); assay type: cell-based, human
Protocol: as §1

Aβ-reactive T cells = test: FACS of activation marker and cytokine expression in an Aβ-reactive T-cell line; assay type: cell-based, human; details: 30 hr after stimulation with irradiated autologous PBMCs
Protocol: To further determine the phenotype of Aβ-reactive T cells, a representative T-cell line also was tested by FACS for Th1 and Th2 cytokine expression. […] We further asked whether the cytokine profiles represented primarily Th2 lineages by testing for the expression of INF-γ and IL-13/IL-5 in the same cells.
as §1

[3] = tested on: peripheral blood mononuclear cells; test: Primary stimulation of PBMCs with αCD3/CD28 or glatiramer acetate ([3H]thymidine proliferation); assay type: cell-based, human
Protocol: In this study, αCD3/CD28 stimulation was measured as follows. PBMCs were cultured with 1 μg/ml soluble αCD3 plus αCD28 or cell culture medium alone, pulsed with [^3H] thymidine on day 2 after stimulation and incorporation measured 12 hr later. For glatiramer acetate stimulation, cells were cultured with 50 μg/ml GA or cell culture medium alone, and pulsed with [^3H] thymidine on day 6. Mean cpm=average cpm for each group. The average cpm for cells with culture medium alone was 825. […] Proliferative responses were calculated from these subjects. Two-tailed p values were calculated for the mean cpm using the alternate Welch test, assuming Gaussion populations with unequal SD's.
Primary stimulation with αCD3/CD28 or GA: For […] stimulation frozen PBMCs (2×10^5 cells/well) were cultured in 5 wells (U-bottom 96-well plate) in the presence of 1 μg/ml soluble αCD3 plus αCD28 and in additional 5 wells with cell culture medium alone, pulsed with […] thymidine on day 2 after stimulation and incorporation measured 12 hr later. For glatiramer acetate stimulation, fresh PBMCs were cultured in 5 wells with 50 μg/ml GA or cell culture medium alone, pulsed with [^3H] thymidine on day 6, and incorporation measured 12 hr later.

[4] = tested on: Primary cultures of microglia; test: Aβ uptake and motility of microglia treated with IFN-γ (live confocal imaging); assay type: cell-based, mouse
Protocol: The meningoencephailis we observed was completely dependent on expression of IFN-g in the CNS. […] We therefore established an in vitro system to examine early events associated with microglia activation by IFN-γ and their contribution to uptake of Aβ and specific T-cell activation. Primary cultures of microglia were prepared and live images were obtained by a confocal microscope, as described in Methods. FITC-labeled Aβ was added to the culture for 30 min, cultures were carefully washed, and live images were taken for 30 minutes. […] (FIG. 10B).
Preparation of cultures of mouse brain microglia: Glial cultures were prepared as described (JI). […]
Aβ uptake and T-cell stimulation by microglia: PE-labeled microglial cells were cultured in MatTek culture dishes (Ashland, Mass.) for 24 hours in the DMEM-FCS medium. […] Live images were then taken for 30 min with 20 sec intervals by a Zeiss Laser Scanning Confocal Microscope and analyzed by 3D analysis software (Zeiss, Thornwood, N.Y.). […]

[5] = tested on: microglia and resting Aβ-reactive T cells; test: Co-culture of microglia and resting Aβ-reactive T cells; assay type: cell-based, mouse
Protocol: Microglial cells were sorted and cultured for 12 hours in the presence and absence of IFN-γ. […] Representative areas were then extracted (shown in higher power) and analyzed for the pattern of T-cell migration. In the IFN-γ-treated culture, T cells were attracted to microglial cells, indicated by the sharp turns between the cells (FIG. 11B), and made a significant higher average number of contacts with the microglial cells, as compared with the untreated microglial culture (about 2.1 versus about 0.5, P<0.001) (FIG. 11B). […] These contacts are short time synapse formations characteristics of an early event during T-cell stimulation.
Preparation of cultures of mouse brain microglia: Glial cultures were prepared as described (JI). Briefly, cells were dissociated from the cerebral cortex of 1-day-old C57BL/6 mice after careful removal of meninges tissues, and were cultured in poly-D-lysine (PDL)-coated tissue culture flasks in medium supplemented with Dulbecco's modified Eagle's medium (DMEM), 4 mM L-glutamine, 50 U/ml penicillin, […] streptomycin, 10 mM HEPES, 1 mM sodium pyruvate, 10 mM nonessential amino acids, […] 2-mercaptoethanol (Sigma, St Louis, Mo.), and 10% fetal calf serum (FCS). On day 7, cultures were incubated with 100 pg/ml IFN-γ for 72 hours and on day 10, the entire glial culture was trypsinized and microglia were labeled with PE-conjugated anti-CD11b and sorted using FACS Vantage SE Cell Sorter.
Aβ uptake and T-cell stimulation by microglia: PE-labeled microglial cells were cultured in MatTek culture dishes (Ashland, Mass.) for 24 hours in the DMEM-FCS medium. […] Live images were then taken for 30 min with 20 sec intervals by a Zeiss Laser Scanning Confocal Microscope and analyzed by 3D analysis software (Zeiss, Thornwood, N.Y.). For the microglia-T-cell coculture experiments, Aβ-reactive T cells were generated as described and labeled with Alexa Flour 488-conjugated anti-mouse CD4. Resting cells were added to the microglia culture together with Aβ1-42.

[6] = lines from 24 subjects, fine mapping with 15 amino acid overlapping peptides
[7] = αCD3/CD28 1 μg/ml pulsed day 2, GA 50 μg/ml pulsed day 6

## Aβ1-40: Aβ1-40 synthetic peptide, one of the two major forms of Aβ protein [reference compound]
[1]
  fibril formation / aggregation: Slight aggregation was detected in only one sample
[2]
  reactivity of Aβ28-42-reactive T-cell lines: unreactive

## Aβ15-42: overlapping C-terminal fragment of Aβ1-42, residues 15-42 (QKLVFFAEDVGSNKGAIIGLMVGGVVIA; Amyloid-beta protein 42; UniProt P05067 686-713, looked up, fragment)
Aβ-reactive T-cell lines
  Th2 response: elicit a Th2 response
Aβ-reactive T cells
  expression of the CD69 activation marker on CD4+ cells: increased expression
[2]; [6]
  Distribution of Aβ T-cell epitopes: Number of T-cell lines: 22
  Distribution of Aβ T-cell epitopes: percent: 92%

## Glatiramer acetate
[3]; all groups tested, 50 μg/ml GA
  subjects that showed proliferation: 90%
[3]; [7]
  Proliferation, Mean cpm ± SEM, Adult: 35,342 ± 7,893 cpm
  Proliferation, Mean cpm ± SEM, Alzheimer's disease subjects: 19,403 ± 3,078 cpm
  Proliferation, Mean cpm ± SEM, Elderly: 27,311 ± 4,781 cpm

## IFN-γ: cytokine used to treat microglial cultures (100 pg/ml)
[4]; pretreated versus untreated cultures, FITC-labeled Aβ 30 min
  Aβ uptake by microglia: significantly enhanced
[4]; treated versus untreated cultures
  filipodia formation (microglia motility): longer and occurred with higher frequency
[5]; IFN-γ-treated culture
  average number of contacts of T cells with the microglial cells: about 2.1
[5]; IFN-γ-treated versus untreated culture
  motility of the T cells: significant increase
[5]; IFN-γ-treated versus untreated microglia, Aβ1-42 as antigen
  density of T cells on microglia: higher density
